In patent publication US20260297060A1, “COMPOUNDS FOR THE DEGRADATION OF MUTANT BRAF” (C4 THERAPEUTICS, INC., priority 2023, published 2026):
Like-named read-outs stand apart in the source and are kept apart here.

What was measured:
[1] = test system: A375 human melanoma xenografts; assay: Example 6 efficacy study in A375 human melanoma xenografts (tumor volume, T/C, TGI); format: in vivo, BALB/c nude mice; settings: p.o., QD × 21 days; for T/C / TGI / Tumor Size on PG-D21: PG-D21; for Tumor Size on PG-D21 / Tumor volume: Mean ± SEM
Procedure: For efficacy study, compounds were tested in the A375 human melanoma xenografts. Known BRAF inhibitors encorafenib, and dabrafenib were used as positive controls. Encorafenib and dabrafenib were administered to BALB/c nude mice bearing A375 tumors on PG-D1 and dosed PO daily (QD) for 3 weeks. Encorafenib was dosed at 35 mg/kg. Dabrafenib was dosed at 100 mg/kg. Compound 83, Compound 93, Compound 70, and Compound 54 were administered to BALB/c nude mice bearing A375 tumors on PG-DO and dosed PO twice per day (BID) for 3 weeks. Compound 83, Compound 93, Compound 70, and Compound 54 were dosed at 10 mg/kg.
The A375 tumor cells were maintained in vitro in DMEM medium supplemented with […] and 1% Penicillin-Streptomycin at 37° C. in an atmosphere of 5% CO2 in air. The tumor cells were routinely subcultured twice weekly. The cells growing in an exponential growth phase were harvested and counted for tumor inoculation.
Each mouse was inoculated subcutaneously at the right flank with A375 tumor cells (5×10^6) in 0.2 mL of PBS with Matrigel (PBS: Matrigel=1:1) supplemented for tumor development. Animals were grouped for the treatment on day 16 after tumor inoculation when the average tumor volume reached 221 mm^3 for efficacy study and 386 mm^3 for PKPD study. The test articles administration and the animal numbers in each group are shown in the above experimental Tables.
Prior to the onset of drug treatment, mice were measured for tumor size in two dimensions using a caliper, and the tumor volume (mm^3) was calculated using formula V=0.5 a×b^2 where a and b are the long and short diameters of the tumor in mm, respectively. Mice were randomized into different treatment groups based on the tumor volume.
The major endpoint was to see if the tumor growth could be delayed or mice could be cured. The tumor size was then used for calculations of T/C value. The T/C value (in percent) is an indication of antitumor effectiveness; T and C are the mean volumes of the treated and control groups, respectively on specified day.
TGI was calculated for each group using the formula: TGI (%)=[1−(Ti−T0)/(Ci−C0)]×100; Ti is the average tumor volume of a treatment group on a given day, T0 is the average tumor volume of the treatment group on the day of treatment start, Ci is the average tumor volume of the vehicle control group on the same day with Ti, and C0 is the average tumor volume of the vehicle group on the day of treatment start.

[2] = Example 6 pharmacokinetics assay for PKPD study (plasma, tumor, liver); format: in vivo, BALB/c nude mice; settings: mouse, po, single dose
Procedure: For the pharmacokinetic/pharmacodynamic (PKPD) study, compounds were tested in the A375 human melanoma xenografts. Known BRAF inhibitors encorafenib, and dabrafenib were used as positive controls. Encorafenib, dabrafenib, Compound 83, Compound 93, Compound 70, and Compound 54 were administered to BALB/c nude mice bearing A375 tumors on PG-D1 and dosed orally (PO) once. Encorafenib was dosed at 35 mg/kg. Dabrafenib was dosed at 100 mg/kg. Compound 83, Compound 93, Compound 70, and Compound 54 were dosed at 10 mg/kg. The plasma and tumor samples were collected at 1, 6, 12 and 24 hours, and liver samples were collected at 6 hours and 12 hours post the single dose. This study was non-GLP study.
The plasma samples were collected at predetermined time points for PK analysis. The mice were euthanized at predetermined time points post the treatment. The blood samples were collected into the 1.5 mL Eppendorf tubes containing 15 μL of 0.5 M EDTA-K2. And then the anticoagulant blood samples were centrifuged at 2,500 g at 4° C. for 15 minutes. The plasma samples were separated into 2 aliquots. The 1st was used for PK analysis, and the 2nd served as backup. The samples were stored at −80° C. before bioanalysis.
The tumor samples were collected at predetermined time points for PK and WB analysis (B-RAF and p-ERK). The tumor was dissected out and split into 3 parts. The 1st part was used for PK analysis, the 2nd part was used for WB analysis and the last one served as backup for study. The samples were transferred into pre-labeled tubes and quickly froze in liquid nitrogen within 2 minutes after dissection. The samples were stored at −80° C. before bioanalysis.
Liver samples were collected at predetermined time points for PK analysis. The left lobe of the liver was dissected out and split into 2 parts. The 1st part was used for PK analysis and the 2nd part served as the backup for the study. The samples were transferred into pre-labeled tubes and quickly froze in liquid nitrogen within 2 minutes after dissection. The samples were stored at −80° C. before bioanalysis.
For PKPD study, the harvested plasma, tumor and liver were processed for pharmacokinetics analysis by LC/MS/MS with a concentration range of 0.5-1000 ng/mL for Encorafenib and Dabrafenib in plasma, 0.05-100 ng/mL for Encorafenib and Dabrafenib in tumor, 0.2-200 ng/mL for Encorafenib and Dabrafenib in liver, 2.0-2000 ng/mL for compound 93, compound 83, compound 54 and compound 70 in liver, 50.0-50000 ng/mL for compound 83 and compound 70 in plasma, 0.5-1000 ng/mL for compound 83 and compound 70 in tumor, 1.0-2000 ng/mL for compound 93 in plasma, 10.0-20000 ng/mL for compound 54 in plasma, 0.5-500 ng/mL for compound 93 and compound 54 in tumor.

[3] = liver, 100 mg/kg, read-out: Concentration in Liver (mean ± SEM)
[4] = plasma, 100 mg/kg, read-out: Concentration in Plasma (mean ± SEM)
[5] = tumor, 100 mg/kg, read-out: Concentration in Tumor (mean ± SEM)
[6] = liver, 35 mg/kg, read-out: Concentration in Liver (mean ± SEM)
[7] = plasma, 35 mg/kg, read-out: Concentration in Plasma (mean ± SEM)
[8] = tumor, 35 mg/kg, read-out: Concentration in Tumor (mean ± SEM)

Question: For `CC(C)(C)c1nc(-c2cccc(NS(=O)(=O)c3c(F)cccc3F)c2F)c(-c2ccnc(N)n2)s1` [Dabrafenib, dabrafenib, reference compound], which T/C ([1]; 100 mg/kg) is on record?
Answer: 26.6%

Question: And the TGI ([1]; 100 mg/kg)?
Answer: 81.5%

Question: What about the “Tumor Size on PG-D21” value ([1]; 100 mg/kg) of the same compound?
Answer: 588 ± 244 mm^3

Question: And the “Tumor volume” value ([1]; 100 mg/kg, day 0)?
Answer: 221 ± 10 mm^3

Question: What about the “Tumor volume” value ([1]; 100 mg/kg, day 4) of the same compound?
Answer: 288 ± 19 mm^3

Question: And the “Tumor volume” value ([1]; 100 mg/kg, day 7)?
Answer: 348 ± 33 mm^3

Question: And the “Tumor volume” value ([1]; 100 mg/kg, day 11)?
Answer: 383 ± 64 mm^3

Question: What about the “Tumor volume” value ([1]; 100 mg/kg, day 14) of the same compound?
Answer: 407 ± 122 mm^3

Question: What about the “Tumor volume” value ([1]; 100 mg/kg, day 18) of the same compound?
Answer: 454 ± 159 mm^3

Question: What about the “Tumor volume” value ([1]; 100 mg/kg, day 21) of the same compound?
Answer: 588 ± 244 mm^3

Question: And the concentration at 6 h [2, 3]?
Answer: 157 ± 12.3 ng/g

Question: What about the concentration at 12 h [2, 3] of the same compound?
Answer: 19.2 ± 5.84 ng/g

Question: And the concentration at 1 h [2, 4]?
Answer: 276 ± 17.2 ng/mL

Question: What about the concentration at 6 h [2, 4] of the same compound?
Answer: 46.2 ± 5.05 ng/mL

Question: And the concentration at 12 h [2, 4]?
Answer: 6.74 ± 2.73 ng/mL

Question: What about the concentration at 24 h [2, 4] of the same compound?
Answer: 0.725 ± 0.11 ng/mL

Question: And the concentration at 1 h [2, 5]?
Answer: 225 ± 29.2 ng/g

Question: And the concentration at 6 h [2, 5]?
Answer: 32.8 ± 0.26 ng/g

Question: And the concentration at 12 h [2, 5]?
Answer: 9.59 ± 1.68 ng/g

Question: And the concentration at 24 h [2, 5]?
Answer: 1.34 ± 0.369 ng/g

Question: Which results are given for `COC(=O)N[C@@H](C)CNc1nccc(-c2cn(C(C)C)nc2-c2cc(Cl)cc(NS(C)(=O)=O)c2F)n1` [Encorafenib, encorafenib, reference compound]?
Answer: T/C ([1]; 35 mg/kg): 10.6%; TGI ([1]; 35 mg/kg): 99.3%; Tumor Size on PG-D21 ([1]; 35 mg/kg): 235 ± 68 mm^3; Tumor volume ([1]; 35 mg/kg, day 0): 221 ± 10 mm^3; Tumor volume ([1]; 35 mg/kg, day 4): 260 ± 22 mm^3; Tumor volume ([1]; 35 mg/kg, day 7): 278 ± 17 mm^3; Tumor volume ([1]; 35 mg/kg, day 11): 238 ± 18 mm^3; Tumor volume ([1]; 35 mg/kg, day 14): 209 ± 31 mm^3; Tumor volume ([1]; 35 mg/kg, day 18): 196 ± 47 mm^3; Tumor volume ([1]; 35 mg/kg, day 21): 235 ± 68 mm^3; concentration at 6 h [2, 6]: 375 ± 82 ng/g; concentration at 12 h [2, 6]: 12.6 ± 5.14 ng/g; concentration at 1 h [2, 7]: 5720 ± 493 ng/mL; concentration at 6 h [2, 7]: 654 ± 169 ng/mL; concentration at 12 h [2, 7]: 17.3 ± 7.09 ng/mL; concentration at 24 h [2, 7]: 0.895 ng/mL; concentration at 1 h [2, 8]: 1250 ± 161 ng/g; concentration at 6 h [2, 8]: 135 ± 22.8 ng/g; concentration at 12 h [2, 8]: 18.1 ± 7.47 ng/g; concentration at 24 h [2, 8]: 2.63 ± 0.386 ng/g
